Key:
[1] = Organ distribution of Se-75 labeled compound in rats after intravenous injection; assay type: in vivo, Spraque-Dawley male rats; conditions: rat; for penetration of the blood brain barrier (in words) / % dose/organ, heart / % dose/organ, kidney / % dose/organ, liver / % dose/organ, lung(2) / % dose/organ, pancreas / % dose/organ, spleen / % dose/organ, brain (brain uptake) / % dose/organ, blood / % dose/organ, muscle: i.v.; for % dose/organ, blood: blood assumed 7% of body weight; for % dose/organ, muscle: muscle assumed 40% of body weight
Text: FIGS. 2 and 3 respectively show the relative concentration of Se-75 labeled di-β-(piperidinoethyl)-selenide and di-β-(morpholinoethyl)-selenide in rat brains at several time intervals after an intravenous injection of a dose of the respective compounds into the rat. As is shown in FIG. 3, and also in Table 4, two minutes after an intravenous injection of Se-75 labeled di-β-(morpholinoethyl)-selenide, the brain uptake of the radiopharmaceutical compound reaches a value of 3.19%. […] The terms uptake, % uptake or % dose are used to describe the percentage of the radiopharmaceutical compound contained in a given organ or tissue as compared to the total initial dose. The numerical values in FIGS. 2 and 3 and Tables 3 and 4 represent such percentages.
Studies of distribution of the radiopharmaceutical compounds of the present invention in rats, the results of which are reflected in FIGS. 2 and 3 and Tables 3 and 4, were conducted according to standard practice in the pharmacological sciences, and therefore need not be described here in great detail. Nevertheless, for the sake of complete understanding of the present invention, some experimental details of these studies are briefly described below:
Spraque-Dawley male rats (220-300 g) were injected intravenously (femoral vein) with a 0.2 ml solution (0.5-2 micro Ci) under light ether anaesthesia. At different time periods after the injection, the animals were sacrificed and organs of interest were excised and counted in a well counter. Percent dose was estimated by comparison of tissue counts to suitably diluted aliquots of the injected material. Total activities in blood and muscle were calculated by assuming that they are 7% and 40% of the body weight respectively.

[2] = n-octanol-aqueous medium partition coefficient pH correlation; assay type: physicochemical; conditions: for partition coefficient / lipid solubility at the pH of the blood (in words): pH 7.4, morpholinoethyl vs piperidinoethyl selenide
Text: The n-octanol-aqueous medium partition coefficients of the compound are readily measured in accordance with standard practice in the prior art. Briefly, such measurements include the steps of dissolving a known amount of the compound in an aqueous buffer of a predetermined pH and extracting the buffer solution with a known amount of n-octanol until an equilibrium of distribution of the compound between the aqueous and n-octanol phases occurs. The concentration of the compound in both phases is then measured by suitable analytical means, such as ultraviolet spectrophotometry; the partition coefficient being the ratio of the two measured concentrations.
For the purposes of evaluating a plurality of radioactive compounds for use in the novel method of the present invention, the n-octanol-aqueous medium partition coefficients of the compounds were measured in the following manner. The radioactive compound was mixed with 1.0 ml of n-octanol and 1.0 ml of buffer of the desired predetermined pH. The radioactivity of this mixture was counted, and the mixture was placed in a water bath shaker at 37° C. for 2 hours. After centrifugation at 3,000 rpm for 5 minutes, the n-octanol layer was separated and its radioactivity counted. The partition coefficient of the compound was calculated by the following equation: [formula]

[3] = Brain imaging study on rhesus monkey (Cleon 710 ECAT scanner); assay type: in vivo, rhesus monkeys; conditions: 5.3 kg monkey, 1 mCi injected, images 15 minutes to 2 hours
Procedure: In addition to the above described organ and tissue distribution studies in rats of the several compounds of the present invention, brain imaging studies were also conducted on rhesus monkeys using a Cleon 710 ECAT scanner.
A 5.3 kg monkey, lightly sedated with Ketalar, was injected with 1 mCi of di-β-(morpholinoethyl)-selenide, (specific activity 1 mCi/mg). Five minutes later the monkey was anaesthetized with pentabarbital. A series of tomographic images was taken at roughly 1/2" intervals starting at the vertex. The first image was started 15 minutes after injection and various images were recorded up to 2 hours after injection. Each image contained approximately one million counts. At the conclusion of the imaging experiment, the monkey was killed and the brain was assayed in the dose calibrator used for measuring the injected dose. No correction was applied for the change in geometry between the syringe and the monkey brain. The weight of the brain was 84 g.

[4] = cited from earlier work
[5] = 2 min (morpholinoethyl: average of 5 samples)

SMILES: C1CN(CC[75Se]CCN2CCOCC2)CCO1 [di-β-(morpholinoethyl)-selenide]
- decrease of brain content (% dose) (in words) ([1]; after intravenous injection): decreases much more rapidly after the intravenous injection than that of di-β-(piperidinoethyl)-selenide
- penetration of the blood brain barrier (in words) [1]: capable of penetrating the blood brain barrier
- % dose/organ, heart ([1]; 2 min): 0.45%
- % dose/organ, kidney ([1]; 2 min): 9.89%
- % dose/organ, liver ([1]; 2 min): 18.3%
- % dose/organ, lung(2) ([1]; 2 min): 2.77%
- % dose/organ, pancreas ([1]; 2 min): 0.88%
- % dose/organ, spleen ([1]; 2 min): 0.68%
- % dose/organ, brain (brain uptake) [1, 5]: 3.19%
- % dose/organ, blood ([1]; 2 min): 3.13%
- % dose/organ, muscle ([1]; 2 min): 10.5%
- % dose/organ, brain (brain uptake) ([1]; 5 min): 2.80%
- % dose/organ, kidney ([1]; 5 min): 7.46%
- % dose/organ, liver ([1]; 5 min): 19.7%
- % dose/organ, spleen ([1]; 5 min): 0.87%
- % dose/organ, blood ([1]; 5 min): 2.72%
- % dose/organ, muscle ([1]; 5 min): 15.0%
- % dose/organ, brain (brain uptake) ([1]; 15 min (average of 6 rats)): 2.23%
- % dose/organ, kidney ([1]; 15 min (average of 6 rats)): 4.04%
- % dose/organ, liver ([1]; 15 min (average of 6 rats)): 22.1%
- % dose/organ, spleen ([1]; 15 min (average of 6 rats)): 1.23%
- % dose/organ, blood ([1]; 15 min (average of 6 rats)): 2.26%
- % dose/organ, muscle ([1]; 15 min (average of 6 rats)): 19.4%
- % dose/organ, brain (brain uptake) ([1]; 30 min): 1.53%
- % dose/organ, heart ([1]; 30 min): 0.22%
- % dose/organ, kidney ([1]; 30 min): 4.03%
- % dose/organ, liver ([1]; 30 min): 23.3%
- % dose/organ, lung(2) ([1]; 30 min): 1.79%
- % dose/organ, pancreas ([1]; 30 min): 0.38%
- % dose/organ, spleen ([1]; 30 min): 1.55%
- % dose/organ, blood ([1]; 30 min): 2.82%
- % dose/organ, muscle ([1]; 30 min): 14.4%
- % dose/organ, brain (brain uptake) ([1]; 1 hr): 1.19%
- % dose/organ, kidney ([1]; 1 hr): 4.30%
- % dose/organ, liver ([1]; 1 hr): 29.9%
- % dose/organ, blood ([1]; 1 hr): 2.61%
- % dose/organ, muscle ([1]; 1 hr): 13.6%
- % dose/organ, brain (brain uptake) ([1]; 2 hr): 0.56%
- % dose/organ, heart ([1]; 2 hr): 0.18%
- % dose/organ, kidney ([1]; 2 hr): 3.42%
- % dose/organ, liver ([1]; 2 hr): 21.7%
- % dose/organ, lung(2) ([1]; 2 hr): 0.94%
- % dose/organ, pancreas ([1]; 2 hr): 0.25%
- % dose/organ, spleen ([1]; 2 hr): 0.88%
- % dose/organ, blood ([1]; 2 hr): 2.46%
- % dose/organ, muscle ([1]; 2 hr): 17.7%
- % dose/organ, brain (brain uptake) ([1]; 6 hr): 0.10%
- % dose/organ, kidney ([1]; 6 hr): 0.64%
- % dose/organ, liver ([1]; 6 hr): 4.38%
- % dose/organ, spleen ([1]; 6 hr): 0.19%
- % dose/organ, blood ([1]; 6 hr): 0.61%
- % dose/organ, muscle ([1]; 6 hr): 3.43%
- % dose/organ, brain (brain uptake) ([1]; 24 hr): 0.02%
- % dose/organ, heart ([1]; 24 hr): 0.02%
- % dose/organ, kidney ([1]; 24 hr): 0.29%
- % dose/organ, liver ([1]; 24 hr): 2.15%
- % dose/organ, lung(2) ([1]; 24 hr): 0.04%
- % dose/organ, pancreas ([1]; 24 hr): 0.01%
- % dose/organ, spleen ([1]; 24 hr): 0.10%
- % dose/organ, blood ([1]; 24 hr): 0.13%
- % dose/organ, muscle ([1]; 24 hr): 0.74%
- partition coefficient / lipid solubility at the pH of the blood (in words) [2]: higher partition coefficient at the pH of the blood (7.4) than di-β-(piperidinoethyl)-selenide
- distribution in monkey brain (in words) [3]: resembles the distribution observed for F-18 2-fluoro-2-deoxyglucose or for N-13 labeled ammonia, with a higher uptake of the radiopharmaceutical compound in gray matter of the brain than in white matter

SMILES: C1CCN(CC[Se]CCN2CCCCC2)CC1 [di-β-(piperidinoethyl)-selenide]
- penetration of the blood brain barrier (in words) [1]: capable of penetrating the blood brain barrier
- % dose/organ, heart ([1]; 2 min): 3.04%
- % dose/organ, kidney ([1]; 2 min): 7.14%
- % dose/organ, liver ([1]; 2 min): 12.0%
- % dose/organ, lung(2) ([1]; 2 min): 20.0%
- % dose/organ, pancreas ([1]; 2 min): 0.62%
- % dose/organ, spleen ([1]; 2 min): 0.51%
- % dose/organ, brain (brain uptake) [1, 5]: 1.09%
- % dose/organ, blood ([1]; 2 min): 4.58%
- % dose/organ, muscle ([1]; 2 min): 7.39%
- % dose/organ, brain (brain uptake) ([1]; 30 min): 1.49%
- % dose/organ, heart ([1]; 30 min): 0.89%
- % dose/organ, kidney ([1]; 30 min): 9.21%
- % dose/organ, liver ([1]; 30 min): 14.3%
- % dose/organ, lung(2) ([1]; 30 min): 2.83%
- % dose/organ, pancreas ([1]; 30 min): 1.42%
- % dose/organ, spleen ([1]; 30 min): 1.31%
- % dose/organ, blood ([1]; 30 min): 0.87%
- % dose/organ, muscle ([1]; 30 min): 13.4%
- % dose/organ, brain (brain uptake) ([1]; 1 hr): 1.53%
- % dose/organ, heart ([1]; 1 hr): 0.35%
- % dose/organ, kidney ([1]; 1 hr): 4.43%
- % dose/organ, liver ([1]; 1 hr): 16.6%
- % dose/organ, lung(2) ([1]; 1 hr): 1.92%
- % dose/organ, pancreas ([1]; 1 hr): 1.07%
- % dose/organ, spleen ([1]; 1 hr): 0.90%
- % dose/organ, blood ([1]; 1 hr): 0.75%
- % dose/organ, muscle ([1]; 1 hr): 16.1%
- % dose/organ, brain (brain uptake) ([1]; 2 hr): 1.63%
- % dose/organ, heart ([1]; 2 hr): 0.19%
- % dose/organ, kidney ([1]; 2 hr): 2.89%
- % dose/organ, liver ([1]; 2 hr): 15.9%
- % dose/organ, lung(2) ([1]; 2 hr): 0.85%
- % dose/organ, pancreas ([1]; 2 hr): 0.84%
- % dose/organ, spleen ([1]; 2 hr): 1.03%
- % dose/organ, blood ([1]; 2 hr): 0.65%
- % dose/organ, muscle ([1]; 2 hr): 12.0%
- % dose/organ, brain (brain uptake) ([1]; 4 hr): 1.32%
- % dose/organ, heart ([1]; 4 hr): 0.16%
- % dose/organ, kidney ([1]; 4 hr): 1.53%
- % dose/organ, liver ([1]; 4 hr): 16.0%
- % dose/organ, lung(2) ([1]; 4 hr): 0.82%
- % dose/organ, pancreas ([1]; 4 hr): 0.60%
- % dose/organ, spleen ([1]; 4 hr): 0.61%
- % dose/organ, blood ([1]; 4 hr): 0.59%
- % dose/organ, muscle ([1]; 4 hr): 11.9%
- % dose/organ, brain (brain uptake) ([1]; 6 hr): 1.18%
- % dose/organ, kidney ([1]; 6 hr): 0.64%
- % dose/organ, liver ([1]; 6 hr): 7.66%
- % dose/organ, spleen ([1]; 6 hr): 0.34%
- % dose/organ, blood ([1]; 6 hr): 0.51%
- % dose/organ, muscle ([1]; 6 hr): 11.5%
- % dose/organ, brain (brain uptake) ([1]; 24 hr): 0.91%
- % dose/organ, heart ([1]; 24 hr): 0.03%
- % dose/organ, kidney ([1]; 24 hr): 0.38%
- % dose/organ, liver ([1]; 24 hr): 4.79%
- % dose/organ, lung(2) ([1]; 24 hr): 0.31%
- % dose/organ, pancreas ([1]; 24 hr): 0.11%
- % dose/organ, spleen ([1]; 24 hr): 0.10%
- % dose/organ, blood ([1]; 24 hr): 0.20%
- % dose/organ, muscle ([1]; 24 hr): 2.81%
- % dose/organ, brain (brain uptake) ([1]; 3 day): 0.16%
- % dose/organ, kidney ([1]; 3 day): 0.12%
- % dose/organ, liver ([1]; 3 day): 1.72%
- % dose/organ, spleen ([1]; 3 day): 0.01%
- % dose/organ, blood ([1]; 3 day): 0.08%
- % dose/organ, muscle ([1]; 3 day): 0.40%
- partition coefficient pH dependence (in words) ([2]; n-octanol-aqueous medium, pH 6.6 to 7.6): much higher partition coefficient pH dependence
- partition coefficient / lipid solubility at the pH of the blood (in words) [2]: less lipid soluble at the pH of the blood

SMILES: Cc1c(I)c(=O)n(-c2ccccc2)n1C [iodoantipyrine]
- penetration of brain tissue (in words) ([4]; in vivo): able to penetrate brain tissue
- retention in brain (in words) ([4]; within one hour after penetration): almost completely leaves the brain by diffusion

Source: patent US4363793A, “Diagnostic radiopharmaceuticals for localization in target tissues exhibiting a regional pH shift relative to surrounding tissues” (State University of New York, priority 1980, dated 1982)
